Measured values reported in patent US9756852B2, “Topical delivery formulation” (MERIAL INC., priority 2014, dated 2017).

How the values were obtained:
[1] = In-lab water resistance (% ML465 removed after water exposure); type: physicochemical; conditions: for In-lab Water Resistance (% ML465 Removed after Water Exposure (n = 2)): 30% Tributyl acetyl citrate
Method: (§1) In-vivo and in-vitro studies were conducted to compare wash-off resistance of formulations prepared with lipophilic solvents and with polymers.
The in-vivo studies of Table 1 were followed with in-vitro studies conducted to assess water resistance of “conventional” solvent systems. Conventional pour-on solvent formulations described below were tested using ML465 as the active under exposure to water for 20 and 40 minutes.
Next, the water resistance of the inventive solvent systems was tested in vitro.

horn fly = experiment: in-vivo efficacy studies A and B: pour-on formulations for control of horn fly on cows; set-up: species or system Haematobia irritans on cows; conditions: 30% Tributyl acetyl citrate
Method: Although many different actives may work with the formulation of the invention, 1H-pyrazole-3-carbonitrile, 1-[2,6-dichloro-4-(trifluoromethyl)phenyl]-5-methyl-4-[(trifluoromethyl)sulfinyl] (i.e., ML465) is the compound used to test topical formulations for control of horn fly on cows for a duration of one month or longer.
as §1
It can be seen that the amount of ML465 washed off is at, or below, 10% of the applied dose, indicating a sharp decrease upon exposure to water. This was not sufficient to support thirty days efficacy duration. Thus, efficacy may depend on resistance of the solvent system to water exposure.

Cc1c([S+]([O-])C(F)(F)F)c(C#N)nn1-c1c(Cl)cc(C(F)(F)F)cc1Cl (stereo not shown) [ML465, 1H-pyrazole-3-carbonitrile, 1-[2,6-dichloro-4-(trifluoromethyl)phenyl]-5-methyl-4-[(trifluoromethyl)sulfinyl]]
In-lab Water Resistance (% ML465 Removed after Water Exposure (n = 2)) ([1]; 20 min, 5% PPG-15 stearyl ether, 6% Isobutene H25, Soybean Oil): 5.2%
In-lab Water Resistance (% ML465 Removed after Water Exposure (n = 2)) ([1]; 20 min, 5% PPG-15 stearyl ether, 10% Isopropyl palmitate, 10% ceteary octanote, 10% butyl stearate, Soybean Oil): 8.8%
In-lab Water Resistance (% ML465 Removed after Water Exposure (n = 2)) ([1]; 20 min, 5% PPG-15 stearyl ether, Soybean oil): 7.5%
In-lab Water Resistance (% ML465 Removed after Water Exposure (n = 2)) ([1]; 20 min, Miglyol 840): 2.4%
In-lab Water Resistance (% ML465 Removed after Water Exposure (n = 2)) ([1]; 40 min, 5% PPG-15 stearyl ether, 6% Isobutene H25, Soybean Oil): 7.3%
In-lab Water Resistance (% ML465 Removed after Water Exposure (n = 2)) ([1]; 40 min, 5% PPG-15 stearyl ether, 10% Isopropyl palmitate, 10% ceteary octanote, 10% butyl stearate, Soybean Oil): 9.2%
In-lab Water Resistance (% ML465 Removed after Water Exposure (n = 2)) ([1]; 40 min, 5% PPG-15 stearyl ether, Soybean oil): 10.1%
In-lab Water Resistance (% ML465 Removed after Water Exposure (n = 2)) ([1]; 40 min, Miglyol 840): 5.2%
amount of ML465 washed off, % of the applied dose ([1]; traditional formulations of trials A and B, exposure to water): ≤ 10%
Duration of above 90% efficacy (horn fly; study A, 3.0% w/v ML465, Miglyol 840): 17 days
Duration of above 90% efficacy (horn fly; study B, 0.5% w/v ML465, 5% Polypropylene Glycol (15) stearyl ether, Soybean Oil): 17 days
Duration of above 90% efficacy (horn fly; study B, 1.0% w/v ML465, 3% Polypropylene Glycol (15) stearyl ether, 8.5% Isopropyl palmitate, 7% Isobutene H25, Soybean Oil): 17 days
Duration of above 90% efficacy (horn fly; study B, 1.0% w/v ML465, 3% Polypropylene Glycol (15) stearyl ether, 10% Isopropyl palmitate, 7% cetearyl octanoate, 10% butyl stearate, Soybean Oil): 24 days
